Patent US20240246977A1, “DEGRADATION OF BRUTON'S TYROSINE KINASE (BTK) BY CONJUGATION OF BTK INHIBITORS WITH E3 LIGASE LIGAND AND METHOD OF USE” (BeiGene Switzerland GmbH, priority 2021, published 2024)
pIC50: −log10 of the molar value.

Key:
[1] = molecular target: BTK (Homo sapiens, UniProt Q06187); assay: BTK cell degradation in TMD-8 cells, HTRF assay; type: cell-based; parameters: endogenous in cells; host or cells: TMD-8 cells; details: 6 h treatment, IC50 (DC50) of BTK degradation
Summary of the method: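 BTK levels read by HTRF in lysates of TMD-8 cells exposed to compounds for 6 h, eight concentrations at 6-fold steps in 0.2% DMSO. Percent degradation versus DMSO and low controls was fitted with a four-parameter equation to give DC50; Dmax is maximal degradation.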

[2] = system: HEK-293 cells; assay: HEK-293 cytotoxicity detection (CellTiter-Glo); type: cell-based; details: Homo sapiens, 72 h, 72 h incubation, CellTiter-Glo luminescence, read-out: HEK293
Summary of the method: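 HEK-293 cells exposed 72 h to 8 compounds doses (4-fold dilutions, top stock 5 mM at 500×) in 0.2% DMSO. Viability by CellTiter-Glo luminescence; inhibition normalised to DMSO high control and low control, IC50 from four-parameter curve fit.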

Sequence of BTK (Q06187 whole entry): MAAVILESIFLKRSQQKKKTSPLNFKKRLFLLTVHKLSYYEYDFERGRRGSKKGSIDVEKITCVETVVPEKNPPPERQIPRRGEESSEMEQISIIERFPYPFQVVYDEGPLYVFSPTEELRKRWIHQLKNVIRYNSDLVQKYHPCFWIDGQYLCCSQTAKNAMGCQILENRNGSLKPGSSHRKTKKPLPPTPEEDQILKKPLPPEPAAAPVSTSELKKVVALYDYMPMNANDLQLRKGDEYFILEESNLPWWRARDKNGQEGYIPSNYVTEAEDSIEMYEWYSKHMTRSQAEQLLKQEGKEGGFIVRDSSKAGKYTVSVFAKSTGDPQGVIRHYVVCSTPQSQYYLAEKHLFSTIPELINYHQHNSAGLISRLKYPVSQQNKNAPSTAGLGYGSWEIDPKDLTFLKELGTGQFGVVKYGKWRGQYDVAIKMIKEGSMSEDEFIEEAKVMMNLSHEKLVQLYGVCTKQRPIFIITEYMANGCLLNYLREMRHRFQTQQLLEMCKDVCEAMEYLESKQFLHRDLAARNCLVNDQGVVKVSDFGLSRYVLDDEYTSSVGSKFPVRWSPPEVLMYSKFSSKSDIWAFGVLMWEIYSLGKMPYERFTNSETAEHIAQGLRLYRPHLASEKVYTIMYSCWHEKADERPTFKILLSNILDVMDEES

Row | SMILES | DC50 [1] | pIC50 [2]
1 | Cc1cccc(NC(=O)c2cnc(-c3nn4c(c3C(N)=O)Nc3ccc(N5CCN(CCc6cc(F)c(C7CCC(=O)NC7=O)c(F)c6)CC5)cc3CC4)cc2C)n1 (centres unmarked) [Example B37, 7-(4-(4-(2,6-dioxopiperidin-3-yl)-3,5-difluorophenethyl)piperazin-1-yl)-2-(4-methyl-5-((6-methylpyridin-2-yl)carbamoyl)pyridin-2-yl)-9,10-dihydro-4H-benzo[d]pyrazolo[1,5-a][1,3]diazepine-3-carboxamide] | 15.2 nM | < 5.00
2 | Cc1cccc(NC(=O)c2ccc(-c3nn4c(c3C(N)=O)Nc3ccc(N5CCN(CC6CCN(c7ccc(N8CCC(=O)NC8=O)cc7)CC6)CC5)cc3CC4)nc2C)n1 [Example B38, 7-(4-((1-(4-(2,4-dioxotetrahydropyrimidin-1(2H)-yl)phenyl)piperidin-4-yl)methyl)piperazin-1-yl)-2-(6-methyl-5-((6-methylpyridin-2-yl)carbamoyl)pyridin-2-yl)-9,10-dihydro-4H-benzo[d]pyrazolo[1,5-a][1,3]diazepine-3-carboxamide] | 4.89 nM | < 5.00
3 | Cc1cc(Cl)cc(NC(=O)c2ccc(-c3nn4c(c3C(N)=O)Nc3ccc(N5CCN(CC6CCN(c7ccc(N8CCC(=O)NC8=O)cc7)CC6)CC5)cc3CC4)c(F)c2C)n1 [Example B42, 2-(4-((4-chloro-6-methylpyridin-2-yl)carbamoyl)-2-fluoro-3-methylphenyl)-7-(4-((1-(4-(2,4-dioxotetrahydropyrimidin-1(2H)-yl)phenyl)piperidin-4-yl)methyl)piperazin-1-yl)-9,10-dihydro-4H-benzo[d]pyrazolo[1,5-a][1,3]diazepine-3-carboxamide] | 3.67 nM | < 5.00
4 | Cc1c(C(=O)Nc2ccc3[nH]ccc3n2)ccc(-c2nn3c(c2C(N)=O)Nc2ccc(N4CCN(CC5CCN(c6ccc(N7CCC(=O)NC7=O)cc6)CC5)CC4)cc2CC3)c1F [Example B45, 2-(4-((1H-pyrrolo[3,2-b]pyridin-5-yl)carbamoyl)-2-fluoro-3-methylphenyl)-7-(4-((1-(4-(2,4-dioxotetrahydropyrimidin-1(2H)-yl)phenyl)piperidin-4-yl)methyl)piperazin-1-yl)-9,10-dihydro-4H-benzo[d]pyrazolo[1,5-a][1,3]diazepine-3-carboxamide] | 1.69 nM | < 5.00
5 | Cc1c(C(=O)Nc2cccc(-c3ccccc3)n2)ccc(-c2nn3c(c2C(N)=O)Nc2ccc(N4CCN(CC5CCN(c6ccc(N7CCC(=O)NC7=O)cc6)CC5)CC4)cc2CC3)c1F [Example B48, 7-(4-((1-(4-(2,4-dioxotetrahydropyrimidin-1(2H)-yl)phenyl)piperidin-4-yl)methyl)piperazin-1-yl)-2-(2-fluoro-3-methyl-4-((6-phenylpyridin-2-yl)carbamoyl)phenyl)-9,10-dihydro-4H-benzo[d]pyrazolo[1,5-a][1,3]diazepine-3-carboxamide] | 4.2 nM | < 5.00

Further lines, with some results ahead:

Row | DC50 [1] | SMILES | pIC50 [2]
6 | 57.8 nM | Cc1cccc(NC(=O)c2ncc(-c3nn4c(c3C(N)=O)Nc3ccc(N5CCN(C6CC(c7ccc([C@H]8CCC(=O)NC8=O)cc7)C6)CC5)cc3CC4)cc2C)n1 (stereo partly drawn) [Example B34, (R)-7-(4-(3-(4-(2,6-dioxopiperidin-3-yl)phenyl)cyclobutyl)piperazin-1-yl)-2-(5-methyl-6-((6-methylpyridin-2-yl)carbamoyl)pyridin-3-yl)-9,10-dihydro-4H-benzo[d]pyrazolo[1,5-a][1,3]diazepine-3-carboxamide] | 6.78
7 | 47.2 nM | Cc1cccc(NC(=O)c2cnc(-c3nn4c(c3C(N)=O)Nc3ccc(N5CCN(CC6CCN(c7ccc(N8CCC(=O)NC8=O)cc7)CC6)CC5)cc3CC4)cc2C)n1 [Example B36, 7-(4-((1-(4-(2,4-dioxotetrahydropyrimidin-1(2H)-yl)phenyl)piperidin-4-yl)methyl)piperazin-1-yl)-2-(4-methyl-5-((6-methylpyridin-2-yl)carbamoyl)pyridin-2-yl)-9,10-dihydro-4H-benzo[d]pyrazolo[1,5-a][1,3]diazepine-3-carboxamide] | < 5.00
8 | 5.66 nM | Cc1cccc(NC(=O)c2ccc(-c3nn4c(c3C(N)=O)Nc3ccc(N5CCN(CCc6cc(F)c(C7CCC(=O)NC7=O)c(F)c6)CC5)cc3CC4)nc2C)n1 (centres unmarked) [Example B39, 7-(4-(4-(2,6-dioxopiperidin-3-yl)-3,5-difluorophenethyl)piperazin-1-yl)-2-(6-methyl-5-((6-methylpyridin-2-yl)carbamoyl)pyridin-2-yl)-9,10-dihydro-4H-benzo[d]pyrazolo[1,5-a][1,3]diazepine-3-carboxamide] | < 5.00
9 | 5.69 nM | Cc1cncc(NC(=O)c2ccc(-c3nn4c(c3C(N)=O)Nc3ccc(N5CCN(CC6CCN(c7ccc(N8CCC(=O)NC8=O)cc7)CC6)CC5)cc3CC4)c(F)c2C)n1 [Example B40, 7-(4-((1-(4-(2,4-dioxotetrahydropyrimidin-1(2H)-yl)phenyl)piperidin-4-yl)methyl)piperazin-1-yl)-2-(2-fluoro-3-methyl-4-((6-methylpyrazin-2-yl)carbamoyl)phenyl)-9,10-dihydro-4H-benzo[d]pyrazolo[1,5-a][1,3]diazepine-3-carboxamide] | < 5.00
10 | 9.26 nM | CCc1cccc(NC(=O)c2ccc(-c3nn4c(c3C(N)=O)Nc3ccc(N5CCN(CC6CCN(c7ccc(N8CCC(=O)NC8=O)cc7)CC6)CC5)cc3CC4)c(F)c2C)n1 [Example B41, 7-(4-((1-(4-(2,4-dioxotetrahydropyrimidin-1(2H)-yl)phenyl)piperidin-4-yl)methyl)piperazin-1-yl)-2-(4-((6-ethylpyridin-2-yl)carbamoyl)-2-fluoro-3-methylphenyl)-9,10-dihydro-4H-benzo[d]pyrazolo[1,5-a][1,3]diazepine-3-carboxamide] | < 5.00
11 | 0.543 nM | Cc1ccnc(NC(=O)c2ccc(-c3nn4c(c3C(N)=O)Nc3ccc(N5CCN(CC6CCN(c7ccc(N8CCC(=O)NC8=O)cc7)CC6)CC5)cc3CC4)c(F)c2C)n1 [Example B43, 7-(4-((1-(4-(2,4-dioxotetrahydropyrimidin-1(2H)-yl)phenyl)piperidin-4-yl)methyl)piperazin-1-yl)-2-(2-fluoro-3-methyl-4-((4-methylpyrimidin-2-yl)carbamoyl)phenyl)-9,10-dihydro-4H-benzo[d]pyrazolo[1,5-a][1,3]diazepine-3-carboxamide] | < 5.00
12 | 15 nM | Cc1c(-c2nc(-c3ccccn3)no2)ccc(-c2nn3c(c2C(N)=O)Nc2ccc(N4CCN(CC5CCN(c6ccc(N7CCC(=O)NC7=O)cc6)CC5)CC4)cc2CC3)c1F [Example B46, 7-(4-((1-(4-(2,4-dioxotetrahydropyrimidin-1(2H)-yl)phenyl)piperidin-4-yl)methyl)piperazin-1-yl)-2-(2-fluoro-3-methyl-4-(3-(pyridin-2-yl)-1,2,4-oxadiazol-5-yl)phenyl)-9,10-dihydro-4H-benzo[d]pyrazolo[1,5-a][1,3]diazepine-3-carboxamide] | < 5.00
13 | 1.9 nM | Cc1c(C(=O)Nc2cnc3ccccc3n2)ccc(-c2nn3c(c2C(N)=O)Nc2ccc(N4CCN(CC5CCN(c6ccc(N7CCC(=O)NC7=O)cc6)CC5)CC4)cc2CC3)c1F [Example B47, 7-(4-((1-(4-(2,4-dioxotetrahydropyrimidin-1(2H)-yl)phenyl)piperidin-4-yl)methyl)piperazin-1-yl)-2-(2-fluoro-3-methyl-4-(quinoxalin-2-ylcarbamoyl)phenyl)-9,10-dihydro-4H-benzo[d]pyrazolo[1,5-a][1,3]diazepine-3-carboxamide] | < 5.00
